Assay results published in patent US6603023B2 (priority 1996, dated 2003).
Read-outs that look alike come from different tables or passages of the source.

How the values were obtained:
[1] = system: P388/Adr; experiment: cells; assay type: cell-based, murine; details: Table 1C
Summary of the method: (§1)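 Duplicate 72 h cultures at 5×10^4 cells/mL, 37 °C, 5% CO2; then XTT plus PMS for 4 h; dual-wavelength read at 450/630 nm. Resistant sublines held under their selecting agents.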

[2] = system: CCRF-CEM human T-cell acute lymphoblastic leukemia cell line; experiment: XTT cytotoxicity (cell growth inhibition), CCRF-CEM
Summary of the method: as §1

[3] = system: Human CCRF-CEM Xenograft; experiment: CCRF-CEM xenograft in scid mice; assay type: in vivo, CB-17 scid mice; details: for mice died of drug toxicity: 7 mice
[4] = system: CCRF-CEM/VBL100; experiment: cells; assay type: cell-based, human; details: for fold resistance (cross-resistance) vs parent CCRF-CEM: CCRF-CEM/VBL100 MDR cells; for IC50: read-out: IC50
Summary of the method: as §1

[5] = system: CCRF-CEM/VM1; experiment: cells; assay type: cell-based, human; details: for IC50: XTT, read-out: IC50
Summary of the method: as §1

[6] = system: CCRF-CEM/Taxol®; experiment: cells; assay type: cell-based, human; details: Table 1A
Summary of the method: as §1

[7] = system: human ovarian adenocarcinoma SK-OV-3; details: 0.6 mg/kg i.p. Q2Dx5 from day 9
[8] = system: B16 Melanoma; assay type: in vivo, B6D2F1 mice
Description: Body weight was determined at 0, 2, 4, 6, 8, 10 and 12 days. […] Injections were started on day 1. […] Body weight was determined at 0, 2, 4, 6, 8, 10 and 12 days. […] Injections were started on day 1.

[9] = dose 0.7 i.p. QD d7-10,14,15, day 12
[10] = dose 0.7 i.p. QD d7-10,14,15, day 17
[11] = dose 0.7 i.p. QD d7-10,14,15, day 22
[12] = dose 1.0 i.p. QD d7-10,14,15, day 12
[13] = dose 1.0 i.p. QD d7-10,14,15, day 17
[14] = dose 1.0 i.p. QD d7-10,14,15, day 22

For `C/C(=C\c1csc(C)n1)[C@@H]1C[C@@H]2O[C@]2(C)CCC[C@H](C)[C@H](O)[C@@H](C)C(=O)C(C)(C)[C@@H](O)CC(=O)O1` [Epothilone B, epothilone B], the “folds of resistance (IC50 ratio vs parent cell line)” value ([1]; P388/Adr vs P388/O) was “(5.5x)”, the IC50 ([1]; XTT, 72 h, read-out: IC50) was 1.6 nM and the IC50 [2] was 0.35 nM. The “fold more potent than Epo A” value ([2]; CCRF-CEM cells) was 6 fold, the “fold more potent than Taxol” value ([2]; CCRF-CEM cells) was 10 fold and the “Rel. Value (potency relative to Epo B)” value ([2]; CCRF-CEM leukemic cells) was 1. The IC50 ([2]; Table 1, XTT) was 0.4 nM, the “mice died of drug toxicity” value ([3]; Epo B dose 0.7 i.p., day 19 & 20) was “^4.Two mice died of drug toxicity on day 19 & 20” and the “mice died of drug toxicity” value ([3]; Epo B dose 1.0 i.p., day 18, 19 and 21) was “^5.Three mice died of drug toxicity on day 18, 19 and 21”. For the same compound, the Average weight change ([3]; dose 0.7 i.p. QD d7-10,14,15, day 7) was −0.1, the “Average tumor volume (control = 1.00)” value [3, 9] was 0.53 and the Average weight change [3, 9] was −0.7. The “Average tumor volume (control = 1.00)” value [3, 10] was 0.48, the Average weight change [3, 10] was −1.4 and the “Average tumor volume (control = 1.00)” value [3, 11] was 0.46. The Average weight change [3, 11] was “+0.3”, the Average weight change ([3]; dose 1.0 i.p. QD d7-10,14,15, day 7) was “+0.1” and the “Average tumor volume (control = 1.00)” value [3, 12] was 0.46. For the same compound, the Average weight change [3, 12] was −1.5, the “Average tumor volume (control = 1.00)” value [3, 13] was 0.35 and the Average weight change [3, 13] was −2.4. The “Average tumor volume (control = 1.00)” value [3, 14] was 0.43, the Average weight change [3, 14] was “+0.1” and the “fold resistance (cross-resistance) vs parent CCRF-CEM” value [4] was 5 fold. For the same compound, the “fold resistance (cross-resistance) vs parent CCRF-CEM” value ([4]; listed as EpoB) was 6.1 fold, the “Potency in parentheses relative to Epo B in CCRF-CEM cells” value ([4]; CCRF-CEM/VBL MDR cells) was 1/6 and the “Potency in square brackets relative to Epo B in CCRF-CEM/VBL MDR cells” value ([4]; CCRF-CEM/VBL MDR cells) was 1. For the same compound, the IC50 ([4]; Table 1, XTT) was 3 nM, the “(B)/(A) IC50 ratio” value ([4]; Table 1A, CCRF-CEM/VBL100 vs CCRF-CEM) was 6.1 and the IC50 ([4]; listed as Epo B) was 2.1 nM. For the same compound, the IC50 [4] was 2 nM, the IC50 ([5]; Table 1) was 2 nM and the “(D)/(A) IC50 ratio” value ([5]; Table 1A, CCRF-CEM/VM1 vs CCRF-CEM) was 3.6. For the same compound, the IC50 ([5]; Table 1A, 72 h) was 1.3 nM, the “(C)/(A) IC50 ratio” value ([6]; CCRF-CEM/Taxol vs CCRF-CEM) was 3.1 and the IC50 ([6]; XTT, 72 h, read-out: IC50) was 1.1 nM. The “Toxicity Death” value [7] was 0/6, the “Tumor Disapp.” value [7] was 0/6 and the “Average Body Weight Change” value ([7]; day 13) was -0.9 g. For the same compound, the “Average Body Weight Change” value ([7]; day 15) was -0.5 g, the “Average Tumor Size (T/C)” value ([7]; day 15) was 0.75 and the “Average Body Weight Change” value ([7]; day 17) was -3.3 g. The “Average Tumor Size (T/C)” value ([7]; day 17) was 0.69, the “Average Body Weight Change” value ([7]; day 19) was -3.4 g and the “Average Tumor Size (T/C)” value ([7]; day 19) was 0.88. For the same compound, the “Average Tumor Size (T/C)” value ([7]; day 21) was 0.77, the “Average Tumor Volume (T/C)” value ([8]; 0.4 mg/kg QD × 6 from day 1, day 7) was 1.07 and the “# Mice Died” value ([8]; 0.8 mg/kg QD × 5 from day 1) was 5/8. For the same compound, the “Average Tumor Volume (T/C)” value ([8]; 0.8 mg/kg QD × 5 from day 1, day 9) was 0.46 and the “Therapeutic effect Rank Order” value ([8]; B16 Melanoma, i.p.) was “dEpoB > Taxol ® >> EpoB”.
